# Data as given in US20250215029A1 (Recludix Pharma, Inc., priority 2022, published 2025).
# Like-named read-outs stand apart in the source and are kept apart here.
# What was measured:
# [1] = target: T1, Recombinant STAT3 protein (STAT3 (G127-I722)) (Homo sapiens, UniProt P40763); test: STAT3 Fluorescence Polarization (FP) Assay; format: binding; conditions: STAT3 (G127-I722) 25 nM, probe 5-FAM-GpYLPQTV-NH2 2 nM, 45-minute incubation; read-out: STAT3 (FP assay IC50 class)
# T1 construct: Recombinant STAT3 protein (STAT3 (G127-I722))
# Procedure, shortened: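 Displacement of a 2 nM 5-FAM-labelled pY peptide (GpYLPQTV) from 25 nM recombinant STAT3 (G127-I722) was monitored by fluorescence polarization. Incubation lasted 45 min at room temperature in pH 7.4 HEPES buffer containing 1% DMSO.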
# [2] = target: T2, Recombinant STAT6 protein (STAT6 (W123-T658)) (Homo sapiens, UniProt P42226); test: STAT6 Fluorescence Polarization (FP) Assay; format: binding; conditions: STAT6 (W123-T658) 250 nM, 45-minute incubation, read-out: STAT6 (FP assay IC50 class)
# T2 construct: Recombinant STAT6 protein (STAT6 (W123-T658))
# T2 sequence (P42226 123-658): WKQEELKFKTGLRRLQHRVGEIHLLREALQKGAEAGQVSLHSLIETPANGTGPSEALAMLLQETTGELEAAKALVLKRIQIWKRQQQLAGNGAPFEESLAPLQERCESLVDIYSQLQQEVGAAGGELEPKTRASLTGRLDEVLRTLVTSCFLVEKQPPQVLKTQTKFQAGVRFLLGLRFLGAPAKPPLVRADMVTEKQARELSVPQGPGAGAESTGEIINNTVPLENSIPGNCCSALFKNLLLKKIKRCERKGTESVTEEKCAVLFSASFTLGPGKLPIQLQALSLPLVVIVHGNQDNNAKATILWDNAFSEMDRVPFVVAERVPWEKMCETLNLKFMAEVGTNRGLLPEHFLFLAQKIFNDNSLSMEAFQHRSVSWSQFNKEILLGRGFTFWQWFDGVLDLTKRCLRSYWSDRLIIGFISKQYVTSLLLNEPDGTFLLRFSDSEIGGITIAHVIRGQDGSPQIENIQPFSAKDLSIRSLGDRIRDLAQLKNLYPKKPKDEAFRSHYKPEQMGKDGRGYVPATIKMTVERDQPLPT
# Procedure, shortened: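 STAT6 (W123-T658) at 250 nM was mixed with 2 nM 5-FAM-labeled phosphotyrosine peptide probe in HEPES pH 7.4 buffer with NaCl, EDTA, Tween 20 and DTT, then added to serially diluted compounds at 1% DMSO final. Polarization was read after 45 min at room temperature; IC50 came from nonlinear regression of mP versus log concentration.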
# T1 sequence (P40763 127-722): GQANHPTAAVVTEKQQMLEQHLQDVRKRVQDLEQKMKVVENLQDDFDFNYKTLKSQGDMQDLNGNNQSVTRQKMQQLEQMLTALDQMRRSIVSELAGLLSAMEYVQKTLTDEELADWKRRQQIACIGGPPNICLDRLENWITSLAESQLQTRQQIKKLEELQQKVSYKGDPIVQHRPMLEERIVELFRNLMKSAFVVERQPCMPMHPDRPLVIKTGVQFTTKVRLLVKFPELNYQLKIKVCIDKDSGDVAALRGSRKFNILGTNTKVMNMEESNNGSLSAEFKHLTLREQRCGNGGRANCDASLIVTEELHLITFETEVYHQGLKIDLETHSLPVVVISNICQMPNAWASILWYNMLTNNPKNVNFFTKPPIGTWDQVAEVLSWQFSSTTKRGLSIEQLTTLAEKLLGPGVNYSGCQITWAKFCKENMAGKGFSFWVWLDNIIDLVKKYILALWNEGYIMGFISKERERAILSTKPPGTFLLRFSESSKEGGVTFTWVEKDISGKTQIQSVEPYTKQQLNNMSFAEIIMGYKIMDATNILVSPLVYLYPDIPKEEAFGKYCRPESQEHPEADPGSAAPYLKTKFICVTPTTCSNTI
Compound,IC50 [1] [µM],IC50 ([2]; probe 5-FAM-Ap[…]-NH2 2 nM) [µM],IC50 ([2]; probe 5-FAM-ApYKPFQDLI-NH2 2 nM) [µM]
"O=C(N[C@H]1C/C=C\C[C@@H]2[C@H](O)C[C@@H](C(=O)N3CC(C(=O)N4CCOCC4)C3)N2C1=O)c1cc2cc(C(F)(F)P(=O)(O)O)ccc2s1 [Compound 730, (difluoro(2-(((1R,3S,6S,10aR,Z)-1-hydroxy-3-(3-(morpholine-4-carbonyl)azetidine-1-carbonyl)-5-oxo-1,2,3,5,6,7,10,10a-octahydropyrrolo[1,2-a]azocin-6-yl)carbamoyl)benzo [b]thiophen-5-yl)methyl) phosphonic acid]",1 to 10,3 to 30,
"O=C(N[C@H]1CC[C@H]2CC[C@@H](C(=O)N3CC(C(=O)N4CCOCC4)C3)N2C1=O)c1cc2cc(C(F)(F)P(=O)(O)O)ccc2s1 [Compound 731, (difluoro(2-(((3S,6S,8aS)-3-(3-(morpholine-4-carbonyl)azetidine-1-carbonyl)-5-oxooctahydro-indolizin-6-yl)carbamoyl)benzo [b]thiophen-5-yl)methyl) phosphonic acid]",1 to 10,3 to 30,
"O=C(N[C@H]1CC[C@H]2CC[C@@H](C(=O)N3CC(n4ccnc4)C3)N2C1=O)c1cc2cc(C(F)(F)P(=O)(O)O)ccc2s1 [Compound 732, ((2-(((3S,6S,8aS)-3-(3-(1H-imidazol-1-yl)azetidine-1-carbonyl)-5-oxooctahydro-indolizin-6-yl)carbamoyl)benzo [b]thiophen-5-yl)difluoromethyl) phosphonic acid]",1 to 10,3 to 30,
"Cn1cc(C2CN(C(=O)[C@@H]3CC[C@@H]4CCC[C@H](NC(=O)c5cc6cc(C(F)P(=O)(O)O)ccc6s5)C(=O)N43)C2)c(C#N)n1 (stereo partly drawn) [Compound 734, ((2-(((3S,6S,9aS)-3-(3-(3-cyano-1-methyl-1H-pyrazol-4-yl)azetidine-1-carbonyl)-5-oxooctahydro-1H-pyrrolo[1,2-a]azepin-6-yl)carbamoyl)benzo [b]thiophen-5-yl)fluoromethyl) phosphonic acid]",0.1 to 1,0.3 to 3,
"C[C@@H]1C[C@H]2CC[C@@H](C(=O)N3CC(c4cnccc4N(C)C)C3)N2C(=O)[C@@H](NC(=O)c2cc3cc([C@H](F)P(=O)(O)O)ccc3s2)C1 [Compound 735, ((R)-(2-(((3S,6S,8S,9aR)-3-(3-(4-(dimethylamino)pyridin-3-yl)azetidine-1-carbonyl)-8-methyl-5-oxooctahydro-1H-pyrrolo[1,2-a]azepin-6-yl)carbamoyl)benzo [b]thiophen-5-yl)fluoromethyl) phosphonic acid]",< 0.1,3 to 30,
"C[C@H]1C[C@H]2CC[C@@H](C(=O)N3CC(c4cnccc4N(C)C)C3)N2C(=O)[C@@H](NC(=O)c2cc3cc([C@H](F)P(=O)(O)O)ccc3s2)C1 [Compound 736, ((R)-(2-(((3S,6S,8R,9aR)-3-(3-(4-(dimethylamino)pyridin-3-yl)azetidine-1-carbonyl)-8-methyl-5-oxooctahydro-1H-pyrrolo[1,2-a]azepin-6-yl)carbamoyl)benzo [b]thiophen-5-yl)fluoromethyl) phosphonic acid]",< 0.1,3 to 30,
"C[C@@H]1[C@@H](c2cccnc2)CN1C(=O)[C@@H]1CC[C@@H]2CCC[C@H](NC(=O)c3cc4cc(C(F)P(=O)(O)O)ccc4s3)C(=O)N21 (stereo partly drawn) [Compound 737, (fluoro(2-(((3S,6S,9aS)-3-((2R,3S)-2-methyl-3-(pyridin-3-yl)azetidine-1-carbonyl)-5-oxooctahydro-1H-pyrrolo[1,2-a]azepin-6-yl)carbamoyl)benzo [b]thiophen-5-yl)methyl) phosphonic acid Or (fluoro(2-(((3S,6S,9aS)-3-((2S,3R)-2-methyl-3-(pyridin-3-yl)azetidine-1-carbonyl)-5-oxooctahydro-1H-pyrrolo[1,2-a]azepin-6-yl)carbamoyl)benzo [b]thiophen-5-yl)methyl) phosphonic acid]",< 0.1,,3 to 30
"CN(C)c1ncncc1C1CN(C(=O)[C@@H]2CC[C@@H]3CCC[C@H](NC(=O)c4cc5cc(C(F)P(=O)(O)O)ccc5s4)C(=O)N32)C1 (stereo partly drawn) [Compound 739, ((2-(((3S,6S,9aS)-3-(3-(4-(dimethylamino)pyrimidin-5-yl)azetidine-1-carbonyl)-5-oxooctahydro-1H-pyrrolo[1,2-a]azepin-6-yl)carbamoyl)benzo [b]thiophen-5-yl)fluoromethyl) phosphonic acid]",< 0.1,3 to 30,
"Cn1ncc(C2CN(C(=O)[C@@H]3CC[C@@H]4CCC[C@H](NC(=O)c5cc6cc(C(F)P(=O)(O)O)ccc6s5)C(=O)N43)C2)c1C#N (stereo partly drawn) [Compound 743, ((2-(((3S,6S,9aS)-3-(3-(5-cyano-1-methyl-1H-pyrazol-4-yl)azetidine-1-carbonyl)-5-oxooctahydro-1H-pyrrolo[1,2-a]azepin-6-yl)carbamoyl)benzo [b]thiophen-5-yl)fluoromethyl) phosphonic acid]",1 to 10,3 to 30,
"COc1ccncc1C1CN(C(=O)[C@@H]2CC[C@@H]3C[C@@H](C)C[C@H](NC(=O)c4cc5cc([C@H](F)P(=O)(O)O)ccc5s4)C(=O)N32)C1 [Compound 749, ((R)-fluoro(2-(((3S,6S,8S,9aR)-3-(3-(4-methoxypyridin-3-yl)azetidine-1-carbonyl)-8-methyl-5-oxooctahydro-1H-pyrrolo[1,2-a]azepin-6-yl)carbamoyl)benzo [b]thiophen-5-yl)methyl) phosphonic acid]",< 0.1,3 to 30,
"O=C(N[C@H]1CCC[C@H]2CC[C@@H](C(=O)N3CC(c4cnccc4N4CCOCC4)C3)N2C1=O)c1cc2cc(CP(=O)(O)O)ccc2s1 [Compound 750, ((2-(((3S,6S,9aS)-3-(3-(4-morpholinopyridin-3-yl)azetidine-1-carbonyl)-5-oxooctahydro-1H-pyrrolo[1,2-a]azepin-6-yl)carbamoyl)benzo [b]thiophen-5-yl)methyl) phosphonic acid]",< 0.1,3 to 30,
"Cn1ncc(F)c1C1CN(C(=O)[C@@H]2CC[C@@H]3CCC[C@H](NC(=O)c4cc5cc(C(F)P(=O)(O)O)ccc5s4)C(=O)N32)C1 (stereo partly drawn) [Compound 751, (fluoro(2-(((3S,6S,9aS)-3-(3-(4-fluoro-1-methyl-1H-pyrazol-5-yl)azetidine-1-carbonyl)-5-oxooctahydro-1H-pyrrolo[1,2-a]azepin-6-yl)carbamoyl)benzo [b]thiophen-5-yl)methyl) phosphonic acid]",0.1 to 1,3 to 30,
"Cn1cc(F)c(C2CN(C(=O)[C@@H]3CC[C@@H]4CCC[C@H](NC(=O)c5cc6cc(C(F)P(=O)(O)O)ccc6s5)C(=O)N43)C2)n1 (stereo partly drawn) [Compound 754, (fluoro(2-(((3S,6S,9aS)-3-(3-(4-fluoro-1-methyl-1H-pyrazol-3-yl)azetidine-1-carbonyl)-5-oxooctahydro-1H-pyrrolo[1,2-a]azepin-6-yl)carbamoyl)benzo [b]thiophen-5-yl)methyl) phosphonic acid]",1 to 10,3 to 30,
"O=C(N[C@H]1CCC[C@H]2CC[C@@H](C(=O)N3CC(c4cscc4F)C3)N2C1=O)c1cc2cc(C(F)P(=O)(O)O)ccc2s1 (stereo partly drawn) [Compound 757, (fluoro(2-(((3S,6S,9aS)-3-(3-(4-fluorothiophen-3-yl)azetidine-1-carbonyl)-5-oxooctahydro-1H-pyrrolo[1,2-a]azepin-6-yl)carbamoyl)benzo [b]thiophen-5-yl)methyl) phosphonic acid]",0.1 to 1,3 to 30,
"CC1C[C@H]2CC[C@@H](C(=O)N3CC(c4cccnc4)C3)N2C(=O)[C@@H](NC(=O)c2cc3cc(C(F)(F)P(=O)(O)O)ccc3s2)C1 (stereo partly drawn) [Compound 759, (difluoro(2-(((3S,6S,9aR)-8-methyl-5-oxo-3-(3-(pyridin-3-yl)azetidine-1-carbonyl)octahydro-1H-pyrrolo[1,2-a]azepin-6-yl)carbamoyl)benzo [b]thiophen-5-yl)methyl) phosphonic acid]",> 10,0.3 to 3,
"O=C(N[C@H]1CCC[C@H]2CC[C@@H](C(=O)N3CCC(c4cc[nH]n4)CC3)N2C1=O)c1cc2cc(C(F)P(=O)(O)O)ccc2s1 (stereo partly drawn) [Compound 760, ((2-(((3S,6S,9aS)-3-(4-(1H-pyrazol-3-yl)piperidine-1-carbonyl)-5-oxooctahydro-1H-pyrrolo[1,2-a]azepin-6-yl)carbamoyl)benzo [b]thiophen-5-yl)fluoromethyl) phosphonic acid]",1 to 10,3 to 30,
